In ChEMBL document CHEMBL4680085 (J Med Chem, 2016):
pIC50: −log10 of the molar value. Active and inactive are the calls of the source. No cut-off for these calls is given here.

Columns and labels:
[1] = system: SH-SY5Y; experiment: Neuroprotection in human SH-SY5Y cells assessed as reduction in beta-amyloid peptide (1-42)-induced cell death at 1 uM incubated for 24 hrs by MTT assay; assay type: functional; parameters: scale not given: the % may be the effect or the level left
[2] = system: SH-SY5Y; experiment: Neuroprotection in human SH-SY5Y cells assessed as reduction in beta-amyloid peptide (1-40)-induced cell death at 1 uM incubated for 24 hrs by MTT assay; assay type: functional; parameters: scale not given: the % may be the effect or the level left
[3] = system: SH-SY5Y; experiment: Neuroprotection in human SH-SY5Y cells assessed as reduction in Rotenone/Oligomycin A -induced cell death at 1 uM incubated for 24 hrs by MTT assay; assay type: functional; parameters: scale not given: the % may be the effect or the level left
[4] = system: SH-SY5Y; experiment: Neuroprotection in human SH-SY5Y cells assessed as reduction in H2O2-induced cell death at 3 uM incubated for 24 hrs by MTT assay; assay type: functional; parameters: scale not given: the % may be the effect or the level left
[5] = system: SH-SY5Y; experiment: Neuroprotection in human SH-SY5Y cells assessed as reduction in beta-amyloid peptide (1-42)-induced cell death at 3 uM incubated for 24 hrs by MTT assay; assay type: functional
[6] = system: SH-SY5Y; experiment: Neuroprotection in human SH-SY5Y cells assessed as reduction in beta-amyloid peptide (1-40)-induced cell death at 3 uM incubated for 24 hrs by MTT assay; assay type: functional; parameters: scale not given: the % may be the effect or the level left
[7] = system: SH-SY5Y; experiment: Neuroprotection in human SH-SY5Y cells assessed as reduction in Rotenone/Oligomycin A -induced cell death at 3 uM incubated for 24 hrs by MTT assay; assay type: functional; parameters: scale not given: the % may be the effect or the level left
[8] = system: SH-SY5Y; experiment: Neuroprotection in human SH-SY5Y cells assessed as reduction in H2O2-induced cell death at 1 uM incubated for 24 hrs by MTT assay; assay type: functional; parameters: scale not given: the % may be the effect or the level left
[9] = target: Acetylcholinesterase (Electrophorus electricus) (UniProt O42275); experiment: Potency index, ratio of IC50 for tacrine to IC50 for test compound for inhibition of Electrophorus electricus AChE
[10] = target: T1, Cholinesterase (Homo sapiens, UniProt P06276); experiment: Inhibition of BuChE in human erythrocyte hemo-lyzates pre-incubated for 5 mins before addition of butyrylthiocholine iodide substrate by Ellman's method; assay type: tissue-based
[11] = target: Cholinesterase (Equus caballus) (UniProt P81908); experiment: Potency index, ratio of IC50 for tacrine to IC50 for test compound for inhibition of horse serum BuChE
[12] = Effective permeability at 100 uM after 3 to 6 hrs by PAMPA assay; assay type: ADME; settings: time 3-6 hrs, read-out: Peff
[13] = in vitro; settings: human, HepG2 cells
Description: Toxicity in human HepG2 cells assessed as cell viability at 100 uM by MTT assay relative to control

[14] = target: Acetylcholinesterase (Electrophorus electricus, UniProt O42275); experiment: Inhibition of Electrophorus electricus AChE pre-incubated for 10 mins before addition of acetylthiocholine iodide substrate and further incubated for 15 mins by Ellman's method
[15] = target: T2, Acetylcholinesterase (Homo sapiens, UniProt P22303); experiment: Inhibition of AChE in human erythrocyte hemo-lyzates pre-incubated for 5 mins before addition of acetylthiocholine iodide substrate by Ellman's method; assay type: tissue-based
[16] = in vitro; settings: human, HepG2 cells; remark: listed apart in the source
Description: Toxicity in human HepG2 cells assessed as cell viability at 300 uM by MTT assay relative to control

[17] = in vitro; settings: human, HepG2 cells; remark: listed apart in the source
Description: Toxicity in human HepG2 cells assessed as cell viability at 1000 uM by MTT assay relative to control

[18] = target: Cholinesterase (Equus caballus, UniProt P81908)
Description: Inhibition of horse serum BuChE pre-incubated for 10 mins before addition of butyrylthiocholine iodide substrate and further incubated for 15 mins by Ellman's method

[19] = target: T3, Nuclear factor erythroid 2-related factor 2 (Homo sapiens) (UniProt Q16236); experiment: Activation of NRF2 in human MCF-7/AREc32 cells at 10 to 30 uM incubated for 24 hrs by luciferase reporter gene assay; assay type: cell-based; settings: MCF7, filed as activator, dose 10-30 µM
T3 sequence (whole entry): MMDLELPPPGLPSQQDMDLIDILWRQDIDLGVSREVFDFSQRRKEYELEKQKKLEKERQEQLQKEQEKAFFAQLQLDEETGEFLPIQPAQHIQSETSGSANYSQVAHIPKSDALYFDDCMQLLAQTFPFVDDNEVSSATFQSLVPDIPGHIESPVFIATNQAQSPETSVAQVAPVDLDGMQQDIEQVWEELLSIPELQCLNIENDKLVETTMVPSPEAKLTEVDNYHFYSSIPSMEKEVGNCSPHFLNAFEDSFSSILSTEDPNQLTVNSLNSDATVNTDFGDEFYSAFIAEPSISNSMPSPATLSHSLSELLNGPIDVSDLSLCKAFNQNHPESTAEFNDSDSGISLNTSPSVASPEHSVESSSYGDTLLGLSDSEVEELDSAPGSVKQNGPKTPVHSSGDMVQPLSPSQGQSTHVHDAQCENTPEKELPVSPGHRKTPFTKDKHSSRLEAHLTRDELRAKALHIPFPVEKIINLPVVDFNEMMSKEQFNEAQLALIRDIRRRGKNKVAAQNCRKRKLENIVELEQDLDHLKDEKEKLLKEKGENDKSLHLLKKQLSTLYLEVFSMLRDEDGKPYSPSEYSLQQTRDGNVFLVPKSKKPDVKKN

[20] = target: T3, Nuclear factor erythroid 2-related factor 2 (Homo sapiens); experiment: Activation of NRF2 in human MCF-7/AREc32 cells at 3 uM incubated for 24 hrs by luciferase reporter gene assay; assay type: cell-based; settings: MCF7, filed as activator
[21] = system: SH-SY5Y; experiment: Neuroprotection in human SH-SY5Y cells assessed as reduction in H2O2-induced cell death at >0.01 uM incubated for 24 hrs by MTT assay; assay type: functional, cell-based; settings: dose microM >0.01, time […]
[22] = system: SH-SY5Y; experiment: Neuroprotection in human SH-SY5Y cells assessed as reduction in beta-amyloid peptide (1-40)-induced cell death at >0.01 uM incubated for 24 hrs by MTT assay; assay type: functional, cell-based; settings: dose microM >0.01, time […]
[23] = target: T3, Nuclear factor erythroid 2-related factor 2 (Homo sapiens); experiment: Activation of NRF2 in human MCF-7/AREc32 cells assessed as concentration required to double Nrf2 transcriptional pathway by measuring specific luciferase reporter activity incubated for 24 hrs by luciferase reporter gene assay; assay type: cell-based
[24] = system: SH-SY5Y; experiment: Neuroprotection in human SH-SY5Y cells assessed as reduction in H2O2-induced cell death at 0.01 uM incubated for 24 hrs by MTT assay; assay type: functional; parameters: scale not given: the % may be the effect or the level left
[25] = system: SH-SY5Y; experiment: Neuroprotection in human SH-SY5Y cells assessed as reduction in beta-amyloid peptide (1-42)-induced cell death at >0.01 uM incubated for 24 hrs by MTT assay; assay type: functional, cell-based; settings: dose microM >0.01, time […]
[26] = system: SH-SY5Y; experiment: Neuroprotection in human SH-SY5Y cells assessed as reduction in beta-amyloid peptide (1-40)-induced cell death at 0.01 uM incubated for 24 hrs by MTT assay; assay type: functional; parameters: scale not given: the % may be the effect or the level left
[27] = system: SH-SY5Y; experiment: Neuroprotection in human SH-SY5Y cells assessed as reduction in beta-amyloid peptide (1-42)-induced cell death at 0.01 uM incubated for 24 hrs by MTT assay; assay type: functional; parameters: scale not given: the % may be the effect or the level left
[28] = system: SH-SY5Y; experiment: Neuroprotection in human SH-SY5Y cells assessed as reduction in Rotenone/Oligomycin A -induced cell death at 0.01 uM incubated for 24 hrs by MTT assay; assay type: functional; parameters: scale not given: the % may be the effect or the level left
[29] = system: SH-SY5Y; experiment: Neuroprotection in human SH-SY5Y cells assessed as reduction in Rotenone/Oligomycin A -induced cell death at >0.01 uM incubated for 24 hrs by MTT assay; assay type: functional, cell-based; settings: dose microM >0.01, time […]
[30] = target: T1, Cholinesterase; experiment: Competitive type inhibition of BuChE in human erythrocyte hemo-lyzates using […] substrate by Ellman's method based Lineweaver-Burk plot analysis; assay type: tissue-based
[31] = Ratio of antioxidant activity of LA to antioxidant activity of test compound assessed as AAPH radical scavenging activity incubated for 15 mins by ORAC-FL method relative to Trolox; assay type: functional
[32] = Ratio of antioxidant activity of melatonin to antioxidant activity of test compound assessed as AAPH radical scavenging activity incubated for 15 mins by ORAC-FL method relative to Trolox; assay type: functional
[33] = target: T2, Acetylcholinesterase; experiment: Mixed type inhibition of AChE in human erythrocyte hemo-lyzates using acetylthiocholine iodide substrate by Ellman's method based Lineweaver-Burk plot analysis; assay type: tissue-based
[34] = Ratio of antioxidant activity of FA to antioxidant activity of test compound assessed as AAPH radical scavenging activity incubated for 15 mins by ORAC-FL method relative to Trolox; assay type: functional

Chain of Acetylcholinesterase (Electrophorus electricus, UniProt O42275) (O42275 whole entry): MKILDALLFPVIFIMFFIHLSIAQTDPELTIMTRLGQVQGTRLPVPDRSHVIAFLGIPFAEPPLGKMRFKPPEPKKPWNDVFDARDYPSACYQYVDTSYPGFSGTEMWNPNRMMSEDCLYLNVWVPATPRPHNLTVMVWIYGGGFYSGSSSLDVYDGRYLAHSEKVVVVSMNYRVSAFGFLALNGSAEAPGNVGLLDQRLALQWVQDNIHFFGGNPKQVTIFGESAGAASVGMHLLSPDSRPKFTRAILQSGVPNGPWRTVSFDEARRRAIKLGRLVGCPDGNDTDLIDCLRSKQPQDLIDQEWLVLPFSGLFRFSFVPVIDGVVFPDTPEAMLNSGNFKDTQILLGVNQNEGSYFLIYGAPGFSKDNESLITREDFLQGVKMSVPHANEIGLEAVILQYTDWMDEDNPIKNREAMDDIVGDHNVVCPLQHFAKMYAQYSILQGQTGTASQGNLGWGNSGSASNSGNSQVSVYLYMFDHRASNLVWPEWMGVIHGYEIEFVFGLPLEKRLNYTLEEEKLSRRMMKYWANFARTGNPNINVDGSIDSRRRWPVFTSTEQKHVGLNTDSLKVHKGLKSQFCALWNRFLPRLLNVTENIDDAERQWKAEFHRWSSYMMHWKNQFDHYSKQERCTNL
T1 sequence (P06276 whole entry): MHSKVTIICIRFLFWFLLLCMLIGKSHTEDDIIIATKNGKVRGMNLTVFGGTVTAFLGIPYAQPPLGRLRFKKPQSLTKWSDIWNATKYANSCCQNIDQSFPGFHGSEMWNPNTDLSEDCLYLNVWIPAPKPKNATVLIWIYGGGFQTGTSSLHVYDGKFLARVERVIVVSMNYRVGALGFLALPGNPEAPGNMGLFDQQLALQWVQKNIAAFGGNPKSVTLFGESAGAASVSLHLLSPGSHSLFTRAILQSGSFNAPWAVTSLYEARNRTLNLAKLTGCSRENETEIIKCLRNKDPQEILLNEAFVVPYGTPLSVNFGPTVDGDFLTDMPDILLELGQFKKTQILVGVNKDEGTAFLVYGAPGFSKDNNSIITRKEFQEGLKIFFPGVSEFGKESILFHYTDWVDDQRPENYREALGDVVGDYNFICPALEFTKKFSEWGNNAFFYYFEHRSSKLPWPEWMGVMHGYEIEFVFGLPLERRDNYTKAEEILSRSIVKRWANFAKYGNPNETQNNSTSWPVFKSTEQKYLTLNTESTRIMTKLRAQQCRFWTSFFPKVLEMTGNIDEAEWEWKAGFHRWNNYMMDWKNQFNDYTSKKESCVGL
T2 sequence (P22303 whole entry): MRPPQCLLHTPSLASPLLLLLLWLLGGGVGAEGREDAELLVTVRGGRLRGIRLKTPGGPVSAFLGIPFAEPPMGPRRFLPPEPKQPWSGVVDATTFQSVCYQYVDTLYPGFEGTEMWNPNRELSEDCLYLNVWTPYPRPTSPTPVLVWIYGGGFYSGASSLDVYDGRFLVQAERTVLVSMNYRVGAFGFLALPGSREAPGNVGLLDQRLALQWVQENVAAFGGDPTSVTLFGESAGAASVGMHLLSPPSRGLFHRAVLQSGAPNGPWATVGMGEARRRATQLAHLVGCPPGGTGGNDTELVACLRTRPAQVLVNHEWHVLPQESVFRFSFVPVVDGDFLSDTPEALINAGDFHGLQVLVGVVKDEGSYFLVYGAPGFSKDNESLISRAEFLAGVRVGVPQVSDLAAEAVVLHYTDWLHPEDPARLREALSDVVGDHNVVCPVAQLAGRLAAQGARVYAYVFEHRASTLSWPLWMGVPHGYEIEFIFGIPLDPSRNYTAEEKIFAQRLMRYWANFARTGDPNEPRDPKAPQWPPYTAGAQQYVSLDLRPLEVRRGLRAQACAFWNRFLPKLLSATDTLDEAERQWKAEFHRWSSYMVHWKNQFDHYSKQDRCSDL
Chain of Cholinesterase (Equus caballus, UniProt P81908) (P81908 whole entry): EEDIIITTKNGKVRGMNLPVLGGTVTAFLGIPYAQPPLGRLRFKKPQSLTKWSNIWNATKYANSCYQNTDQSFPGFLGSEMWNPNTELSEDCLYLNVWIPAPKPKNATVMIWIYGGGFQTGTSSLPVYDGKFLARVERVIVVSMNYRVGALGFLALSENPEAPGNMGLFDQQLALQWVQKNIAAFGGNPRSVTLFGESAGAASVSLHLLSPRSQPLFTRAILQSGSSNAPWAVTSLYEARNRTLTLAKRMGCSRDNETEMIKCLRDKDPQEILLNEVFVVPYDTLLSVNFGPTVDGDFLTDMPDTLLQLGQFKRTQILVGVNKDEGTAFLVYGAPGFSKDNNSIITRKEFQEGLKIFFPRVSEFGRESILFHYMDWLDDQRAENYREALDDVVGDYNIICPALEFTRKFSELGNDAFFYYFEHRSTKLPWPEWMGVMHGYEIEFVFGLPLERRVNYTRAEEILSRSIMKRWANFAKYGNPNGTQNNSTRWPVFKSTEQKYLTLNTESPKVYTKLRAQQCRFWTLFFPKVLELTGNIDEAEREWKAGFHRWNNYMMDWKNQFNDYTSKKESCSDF
Chain of Acetylcholinesterase (Electrophorus electricus) (O42275 24-633 limits assumed): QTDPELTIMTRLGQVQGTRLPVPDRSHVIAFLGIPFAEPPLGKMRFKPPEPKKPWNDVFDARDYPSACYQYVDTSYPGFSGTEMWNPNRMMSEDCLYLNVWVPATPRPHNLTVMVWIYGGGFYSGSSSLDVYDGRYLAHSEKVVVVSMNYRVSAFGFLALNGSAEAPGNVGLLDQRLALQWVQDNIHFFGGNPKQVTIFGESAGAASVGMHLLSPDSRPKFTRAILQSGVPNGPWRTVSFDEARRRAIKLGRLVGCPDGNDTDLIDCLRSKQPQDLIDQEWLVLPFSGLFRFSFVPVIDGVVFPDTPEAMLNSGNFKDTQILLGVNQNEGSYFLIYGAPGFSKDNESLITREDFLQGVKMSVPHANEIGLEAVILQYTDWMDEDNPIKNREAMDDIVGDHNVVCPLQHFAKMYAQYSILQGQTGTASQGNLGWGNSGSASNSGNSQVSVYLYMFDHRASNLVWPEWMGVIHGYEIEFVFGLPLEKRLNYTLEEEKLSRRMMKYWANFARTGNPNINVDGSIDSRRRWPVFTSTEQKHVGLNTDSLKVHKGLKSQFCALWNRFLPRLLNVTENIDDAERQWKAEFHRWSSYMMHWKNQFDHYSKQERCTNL
Chain of Cholinesterase (Equus caballus) (P81908 whole entry): as the sequence (P81908 whole entry) above

SMILES | Activity [1] | Activity [2] | Activity [3] | Activity [4] | Activity [5] | Activity [6] | Activity [7] | Activity [8] | pIC50 [10] | Papp at 100 µM [12] | viability at 100 µM [13] | pIC50 [14] | pIC50 [15] | viability at 300 µM [16] | viability at 1000 µM [17] | pIC50 [18] | Activity [19] | Activity [20] | CD ([23]; MCF7, filed as activator) | further results
COC(=O)/C=C/c1ccc(O)c(OC)c1 | 40.7% | 27.8% | 23.8% | 56.9% | inactive | 53.9% | 21.3% | 51.1% | – | – | – | – | – | – | – | – | – | – | – | –
COc1ccc2[nH]cc(CCNC(=O)CN(CCCCCCCCNc3c4c(nc5ccccc35)CCCC4)C(=O)CCCC[C@@H]3CCSS3)c2c1 | – | – | – | – | – | – | – | – | 6.68 | 6.9 ×10⁻⁶ cm/s | 86.2% | 8.44 | 6.74 | 58.9% | 48.8% | 8.90 | – | – | – | Ratio IC50 [9]: 12.2; Ratio IC50 [11]: 4
COc1ccc2[nH]cc(CCNC(C)=O)c2c1 [MELATONIN] | 39.4% | 35.5% | 50.1% | 60.7% | 15.3% | 60.2% | 59.1% | 47.4% | – | – | 91.4% | – | – | 71.8% | 72.3% | – | Active | Active | – | Activity [21]: inactive; Activity [22]: inactive; CD ([23]; MCF7): > 60 µM; Activity [24]: 55.4%; Activity [25]: inactive; Activity [26]: 33%; Activity [27]: 81.4%; Activity [28]: 66.6%; Activity [29]: inactive
COc1ccc2nc3c(c(NCCCCCCN(CC(=O)NCCc4c[nH]c5ccc(OC)cc45)C(=O)CCCC[C@@H]4CCSS4)c2c1)CCCC3 | – | – | – | – | – | – | – | – | 5.73 | – | 68.7% | 7.80 | < 5.00 | 46.4% | 44.8% | 8.41 | – | – | – | –
COc1ccc2nc3c(c(NCCCCCCCN(CC(=O)NCCc4c[nH]c5ccc(OC)cc45)C(=O)/C=C/c4ccc(O)c(OC)c4)c2c1)CCCC3 | 81.4% | 70.6% | 33.7% | 30.9% | 57.4% | 56.7% | 41.7% | 37.6% | 6.63 | 4.2 ×10⁻⁶ cm/s | 84.7% | 8.08 | 5.89 | 69.9% | 68.7% | 8.54 | Active | Active | 6.31 µM | inhibition [30]: Active; Ratio [31]: 38; Ratio [32]: 3.96; inhibition [33]: Active; Ratio [34]: 2.43
COc1ccc2nc3c(c(NCCCCCCN(CC(=O)NCCc4c[nH]c5ccc(OC)cc45)C(=O)/C=C/c4ccc(O)c(OC)c4)c2c1)CCCC3 | 85.1% | 12% | 39.2% | 42.8% | 50.2% | inactive | 29.2% | 22.9% | 6.45 | 2.2 ×10⁻⁶ cm/s | 70.3% | 7.75 | < 5.00 | 67.6% | 56.5% | 8.53 | – | – | 10.9 µM | –
